# Data as given in patent US9163044B2, “Carbon monoxide releasing molecules and uses thereof” (Alfama, Inc., priority 2011, dated 2015).
# Experiments:
# [1] = test system: APAP-induced acute liver failure (ALF) model; assay: APAP-induced acute liver failure (ALF) model, sublethal (300 mg/kg APAP i.p.); type: in vivo, C57Bl/6 male mice; details: for ALT levels reduced relative to untreated control animals: +5 h after APAP (300 mg/kg), ALT at 22 hours
# Description: Compound 3b was studied in a sublethal model for acetaminophen (APAP)-induced Liver Injury.
# ALF was induced in C57Bl/6 male mice with a single dose of acetaminophen (300 mg/kg) by i.p. injection. […] Serum alanine aminotransferase (ALT) was measured 22 h after APAP injection (n=5 mice for each group). […] ALF was induced in C57Bl/6 male mice with a single dose of acetaminophen (300 mg/kg) by i.p. injection. […] Twenty-two hours after APAP injection serum ALT was measured (indicated in FIG. 11A), centrilobular sections of mouse livers were cut and stained with hematoxylin and eosin, and the percentage of liver necrosis was determined. The data indicates a dose-dependent reduction of ALT levels of 9% to 83% relative to APAP control, and a dose-dependent reduction of necrosis of 0% to 56% relative to APAP control.
# ALF was induced in C57Bl/6 male mice with a single dose of acetaminophen (300 mg/kg) by i.p. injection. […] Alanine aminotransferase (ALT) was measured 22 h after APAP injection (n=4 or n=5 mice for each group).
# ALF was induced in C57Bl/6 male mice with a single dose of acetaminophen (300 mg/kg) by i.p. injection. […] Twenty-two hours after APAP injection, serum ALT was measured (indicated in FIGS. 12A-12B), centrilobular sections of mouse livers were cut and stained with hematoxylin and eosin, and the percentage of liver necrosis was determined.
# ALF was induced in C57Bl/6 male mice with a single dose of acetaminophen (300 mg/kg) by i.p. injection.
# FIG. 14 depicts the effect of late treatment with Compound 3b on serum ALT in ALF model. ALF was induced in C57Bl/6 male mice with a single dose of acetaminophen (300 mg/kg) by i.p. injection. At sixteen hours after APAP injection, the animals were treated with different doses of Compound 3b (0.3, 3, 30 or 60 mg/kg). Alanine aminotransferase (ALT) was measured 22 h after APAP injection (n=4 or n=5 mice for each group).
# ALF was induced in C57Bl/6 male mice with a single dose of acetaminophen (300 mg/kg) by i.p. injection. […] Experiments 1 and 2 represent two independent experiments. Alanine aminotransferase (ALT) was measured 22 h after APAP injection (n=4 or n=5 mice for each group). The ALT levels and the respective percentage of ALT increase, relative to the increase observed in mice injected with APAP alone, are presented in Table 7.
# ALF was induced in C57Bl/6 male mice with a single dose of acetaminophen (300 mg/kg) by i.p. injection. […] Twenty-two hours after APAP injection, serum ALT was measured and centrilobular sections of mouse livers were cut and stained with hematoxylin and eosin.
# [2] = half-life for CO release in sheep blood using an oximeter; type: in vitro ADME; details: 632.1 μg/mL
# Description: The stability of compound 4b was determined by measuring the release of CO in vitro in 50 mM Hepes buffer (pH 7.4) using a RCP-equipped GC. Compound 4b concentration was 50 μM. […] The half-life for CO release was also measured in sheep blood using an oximeter. A concentration of 632.1 μg/mL of compound 4b was used.
# The half-life for CO release was also measured in sheep blood using an oximeter. […] Compound 5b released 0.12 molar equivalents of CO in 3 hours.
# [3] = test system: murine partial hepatectomy model; details: from Yang et al., Crit. Care (2009); cited from earlier work
# [4] = test system: lethal APAP liver failure model; assay: lethal APAP liver failure model (500 mg/kg APAP i.p.), survival; details: 2×300 mg/kg, same schedules; data not shown
# [5] = NAC 2 × 300 mg/kg at 1 h and 3 h post APAP, serum 22 h
structure (smiles),measurement,setting,value
"O=C([O-])CC([N+]#[C][Mo-6]([C]#[O+])([C]#[O+])([C]#[O+])([C]#[N+]C(CC(=O)[O-])C(=O)[O-])[C]#[N+]C(CC(=O)[O-])C(=O)[O-])C(=O)[O-].[Li+].[Li+].[Li+].[Li+].[Li+].[Li+] (centres unmarked) [Compound 4b, tricarbonyl[tris(lithium 2-isocyanosuccinate)]Mo(0)]",ALT levels reduced relative to untreated control animals,[1]; 30 mg/kg i.p. at +3 h,75%
"O=C(O)C1([N+]#[C][Mo-6]([C]#[O+])([C]#[O+])([C]#[O+])([C]#[N+]C2(C(=O)O)CC2)[C]#[N+]C2(C(=O)O)CC2)CC1 [Compound 5b, tricarbonyl[tris(isocyanocyclopropylcarboxylic acid)]Mo(0)]",CO released in sheep blood in 3 hours,[2],0.12 molar equivalents of CO
same,ALT levels reduced relative to untreated control animals,[1]; 120 mg/kg i.p. at +3 h,70%
"CC(=O)N[C@@H](CS)C(=O)O [NAC, N-acetylcysteine, reference compound]",Measured ALT values (mean ± S.D.) Experiment 1,[1]; [5],1745 ± 738 U/L
same,Measured ALT values (mean ± S.D.) Experiment 2,[1]; [5],6620 ± 2142 U/L
same,effect on serum ALT when given late after APAP injury (in words),"[1]; five hours and seven hours after APAP, NAC 150 mg/kg, Compound 3b 120 mg/kg",no longer effective and increases serum ALT levels (is toxic)
same,effect on liver regeneration (in words),[3],no effect and may be detrimental
same,survival,[4],100%
